Laboratory results from patent publication US6921775B2, “Methods for modulating brain damage” (Children's Medical Center Corporation, priority 2001, dated 2005).

Test system: AMPA receptors in cerebral white matter
Experiment: Intracerebral AMPA injection white matter injury
Type: in vivo
Method: The methods used in this example are described in Follett et al. (2000) J. Neurosci. 20:9235-9241, incorporated by reference herein.
NBQX attenuation of the selective white matter injury after hypoxia/ischemia implicated GluR-mediated toxicity as an important mechanism of injury in immature OLs. To confirm a relationship between the activation of AMPA receptors in cerebral white matter and the vulnerability to injury, AMPA was injected directly into immature white matter. […] Minimal to no injury was present in vehicle-injected controls (M K801 alone; n=7) at the same age (t test, p<0.001).
To determine whether AMPA toxicity was age dependent, lesion size after intracerebral AMPA injections at P4, P7, and P11 was compared.

Cc1o[nH]c(=O)c1CC(N)C(=O)O (centres unmarked) [AMPA]
white matter injury after intracerebral injection (P7 rat pups, 5 nmol of AMPA plus 5 nmol of MK-801, vs MK-801 alone p<0.001): produced white matter injury
white matter injury (pericallosal lesion size) after injection at P4 and P11 compared with P7 (intracerebral AMPA, one-way ANOVA p<0.001): significantly less white matter injury
